The values that follow come from patent US10653780B2, “Amino lipids and methods for the delivery of nucleic acids” (ARBUTUS BIOPHARMA CORPORATION, priority 2008, dated 2020).

For one data set, the system named is transthyretin (TTR). Description: TTR silencing by KC2-SNALP-formulated siTTR in non-human primates (liver TTR mRNA). Format: in vivo, Cynomolgus monkeys. The note with it: Macaca fascicularis, iv, single 15 minute i.v. infusion; 48 hours post-administration. From the text: FIGS. 9A-B illustrate the efficacy of KC2-SNALP formulations. FIG. 9A is a graph showing the improved efficacy of KC2-SNALP versus a DLin-K-C2-DMA PFV formulation in mice. The in vivo efficacy of KC2-SNALP (◯) was compared to that of the un-optimized DLin-KC2-DMA PFV formulation (●) in the mouse FVII model. Data points are expressed as a percentage of PBS control animals and represent group mean (n=5)±s.d. FIG. 9B depicts the efficacy of KC2-SNALP in non-human primates. Cynomolgus monkeys (n=3 per group) received either 0.03, 0.1, 0.3 or 1 mg/kg siTTR, or 1 mg/kg siApoB formulated in KC2-SNALP or PBS as 15 minute intravenous infusions (5 mL/kg) via the cephalic vein. Animals were sacrificed at 48 hours post-administration. TTR mRNA levels relative to GAPDH mRNA levels were determined in liver samples. Data points represent group mean±s.d. *=P<0.05; **=P<0.005.
Given the promising activity and safety profile observed in rodents in the studies described in Example 17, studies were performed in non-human primates to investigate the translation of DLin-KC2-DMA activity in higher species. For these studies, transthyretin (TTR), a hepatic gene of high therapeutic interest, was targeted. […]
Tissues were harvested at 48 hours post-administration, and liver mRNA levels of TTR were determined. […]

Data set [1] can be described thus: In situ determination of apparent pKa using TNS fluorescence titration.
Excerpt: In situ pKa measurements were made using the pH sensitive fluorescent probe TNS, using a modification of the approach previously published in Bailey, A. L. and Cullis, P. R., Biochemistry 33:12573-12580 (1994).
Titrations of surface charge as a function of pH can then be used to determine the apparent pKa (hereafter referred to as pKa) of constituent lipids (Cullis, P. R., et al., Chem Phys Lipids 40:127-144 (1986)).
Data set [2] has as its system Factor VII (FVII). The data set can be described thus: In vivo FVII activity of nucleic acid-lipid formulations in rats. The note with it: PEG-C-DOMG as PEG-lipid. Also noted: species or system SD rats. How it is done:
The ability of various nucleic acid-lipid formulations comprising different cationic lipids was further explored in mice and rats. Each of the tested nucleic acid-lipid formulations was prepared as described above using PEG-C-DOMG as the PEG-lipid. The formulations initially tested (which included either DLin-K-DMA, DLin-K-MPZ, DLin-K-C2-DMA, or DLin-K-C4-DMA) reduced residual FVII levels in both mice (FIG. 3) and rats (FIG. 4). […] The activity of the DLin-K-C2-DMA formulation was approximately 2-3-fold greater than the DLin-K-DMA formulation in mice, and approximately 10-20-fold greater than the DLin-K-DMA formulation in rats. A comparison of FVII reduction in mice and rats using the DLin-K-DMA formulation or the DLin-K-C2-DMA formulation is shown in FIG. 5.

The format of data set [3] is in vivo. The settings on record: rats. Here is the method:
(§1) Data was recorded as % Change in Body Weight.
Histopathology results for livers obtained from rats treated with 91 mg/kg (“5” mg/kg) were normal.

Data set [4] can be described thus: Bilayer-to-hexagonal HII transition temperature (TBH) in equimolar mixtures with DSPS. Format: physicochemical. The settings on record: for HII transition temperature: equimolar with DSPS, pH 4.8, 31P NMR and DSC. From the text: Both techniques gave similar results.
Data set [5] in a line: Tolerability of DLin-K-C2-DMA lipid particles in mice. Type of data set: in vivo. How it is done: as §1
Data set [6] has as its system Factor VII (FVII). The note with it: for FVII ED50: Table 11. From the text: It is well established that in vivo RNAi silencing of specific hepatocyte proteins can be achieved following intravenous (i.v.) administration of siRNA's encapsulated in, or associated with, select nanoparticles designed for intracellular delivery. […] In this Example, rational design in combination with in vivo screening were applied to systematically modify the structure of DLinDMA and identify molecular features that enhance or reduce cationic lipid potency. More than 30 lipids were synthesized and incorporated into nucleic acid-lipid particles, i.e., lipid nanoparticles (LN) encapsulating an siRNA (LN-siRNA) targeting Factor VII (FVII), a blood clotting component synthesized and secreted by hepatocytes that is readily measured in serum. LN-siRNA systems were prepared using the same process, lipid molar ratios and particle size to minimize effects on activity resulting from formulation characteristics other than the cationic lipid. Each formulation was administered as a single bolus injection over a range of doses enabling an estimate of the siRNA dose required to reduce FVII serum protein concentrations by 50% after 24 h (ED50).
FVII activity was evaluated in FVII siRNA-treated animals at 24 hours after intravenous (bolus) injection in C57BL/6 mice or 48 hours after intravenous (bolus) injection in SD rats. Six to 8 week old, female C57Bl/6 mice were obtained from Charles River Laboratories and acclimated for one week prior to use in studies. Animals were held in a pathogen-free environment and all procedures involving animals were performed in accordance with the guidelines established by the Canadian Council on Animal Care.
LN-siRNA systems containing Factor VII siRNA were diluted to the appropriate concentrations in sterile phosphate buffered saline immediately prior to use, and the formulations were administered intravenously via the lateral tail vein in a total volume of 10 ml/kg. After 24 h, animals were anaesthetised with Ketamine/Xylazine and blood was collected by cardiac puncture and processed to serum (Microtainer Serum Separator Tubes; Becton Dickinson, Franklin Lakes, N.J., USA). Serum was tested immediately or stored at −70° C. for later analysis for serum Factor VII levels.
FVII was measured using a commercially available kit (Biophen FVII Kit™; Aniara Corp., Mason, Ohio), following the manufacturer's instructions at a microplate scale. FVII reduction was determined against untreated control animals, and the results were expressed as % Residual FVII. Five dose levels (0.1, 0.3, 0.5, 1.0, and 3.0 mg/kg) were typically used.
Serum Factor VII levels were determined using the colorimetric Biophen VII assay kit (Anaira, USA). Briefly, serially diluted pooled control serum (200%-3.125%) and appropriately diluted plasma samples from treated animals were analyzed using the Biophen VII kit according to manufacturer's instructions in 96-well, flat bottom, non-binding polystyrene assay plates (Corning, Corning, N.Y.) and absorbance at 405 nm was measured. A calibration curve was generated using the serial diluted control serum and used to determine levels of Factor VII in serum from treated animals.
Initial studies were performed in eight to 10 week old, female C57BL/6 mice in two stages. In the first stage, the activity associated with the benchmark lipid DLinDMA was compared to the activity associated with modified forms of DLinDMA.

Data set [7] can be described thus: Pharmacokinetic and liver analysis of Cy-3 labeled siRNA in LN-siRNA systems. Format: in vivo. From the text: A fluorescently labeled siRNA (Cy-3 labeled luciferase siRNA, Alnylam Pharmaceuticals) was used to measure the siRNA content in plasma and liver after iv administration of LN-siRNA systems. The measurements were done by first extracting the Cy3-siRNA from the protein-containing biological matrix and then analyzing the amount of Cy-3 label in the extract by fluorescence. Two extraction methods were used, a chloroform/methanol mixture for the plasma samples and a commercial phenol/chloroform mixture (Trizol® reagent) with the tissue samples.
For plasma, blood was collected in EDTA-containing Vacutainer tubes and centrifuged at 1000×g for 10 min at 4-8° C. to isolate the plasma. The plasma was transferred to an eppendorf tube and either assayed immediately or stored in a −30° C. freezer. An aliquot of the plasma (100 μL maximum) was diluted to 500 μL with PBS (145 mM NaCl, 10 mM phosphate, pH 7.5), methanol (1.05 mL and chloroform (0.5 mL) was added, and the sample vortexed to obtain a clear, single phase solution. Water (0.5 mL) and chloroform (0.5 mL) was then added and the resulting emulsion sustained by mixing periodically for a minimum of 3 minutes. The mixture was centrifuged at 3000 rpm for 20 minutes and the top aqueous phase containing the Cy-3-label transferred to a new test tube. The fluorescence of the solution was measured using an SLM Fluorimeter at an excitation wavelength of 550 nm (2 nm bandwidth) and emission wavelength of 600 nm (16 nm bandwidth). A standard curve was generated by spiking aliquots of plasma from untreated animals with the Cy-3-siRNA containing formulation (0 to 15 μg/mL), and the sample processed as indicated above.
For liver, sections (400-500 mg) of tissue from saline-perfused animals was accurately weighed and homogenized in 1 mL of Trizol using Fastprep tubes. An aliquot of the homogenate (typically equivalent to 50 mg of tissue) was transferred to an eppendorf tube and additional Trizol added to 1 mL final. Chloroform (0.2 mL) was added, and the solution was mixed and incubated for 2-3 min before being centrifuged for 15 min at 12,000×g. An aliquot (0.5 mL) of the top Cy-3-containing aqueous phase was diluted with 0.5 mL of PBS and the fluorescence of the sample measured as described above.
The correlation between levels of siRNA delivered to the liver and FVII reduction was determined by encapsulating Cy-3 labeled siRNA in the selection of LN-siRNA systems covering a spectrum of in vivo activities shown in Table 8. Cy-3 fluorescence was measured in plasma and liver tissue 0.5 and 3.0 h post injection.

The mark [8] stands for this setting: siRNA dose reducing serum FVII protein by 50% at 24 h, PFV LN-siRNA 40/10/40/10.

Values joined by “and” are separate entries in the source; they are usually repeats but may differ in a detail not shown here. Equal entries are not always repeated. Where two headings read alike, the source gives them in different places.

A word on the ED50: it is the midpoint of the dose-response relation. Broadly, the pKa is the pH at which an ionisable group is half protonated. On to `CCCCC/C=C\C/C=C\CCCCCCCCC1(CCCCCCCC/C=C\C/C=C\CCCCC)OCC(CCN(C)C)O1` (stereo not drawn) [DLin-K-C2-DMA, 2,2-Dilinoleyl-4-(2-dimethylaminoethyl)-[1,3]-dioxolane], for which the ED50 was 0.3 mg/kg in the data set with transthyretin (TTR); around 0.1 mg/kg with Factor VII (FVII) [6] (Table 6, siRNA dose reducing serum FVII protein by 50% at 24 h, PFV LN-siRNA 40/10/40/10); around 0.1 mg/kg in the data set with Factor VII (FVII) [6] (setting [8]). Moreover, the pKa in data set [1] and in data set [1] (nucleic acid-lipid particles containing the cationic lipid) was 6.4 each time. In addition, in the data set with Factor VII (FVII) [2], the “fold greater activity than the DLin-K-DMA formulation” value is 10-20 fold. Further, the “lipid dose as low as which significant increases in ALT/AST were seen” value in data set [3] stood at 182 mg/kg lipid. Besides, the liver histopathology entry in data set [3] (91 mg/kg) was “normal”; in data set [3] (182 mg/kg), “mild to moderate hepatocellular necrosis, centrilobular, and hepatocellular vacuolization”. In addition, the “clinical observations and liver appearance” value in data set [3] (91 mg/kg lipid) is “appeared normal and had normal livers”; in data set [3] (364 mg/kg lipid), “hunched, slower movement, quinting eyes, scruffy coats, piloerection, red/orange uring, with pale and some mottling livers”. Besides, the clinical observations result in data set [3] (182 mg/kg lipid) is “slower movement and a scruffy coat”. In addition, the mortality result in data set [3] (364 mg/kg lipid) is listed as “one died”; in data set [5] (mouse, in vivo), “no mice died”. For the same compound, the body weight result in data set [3] (24 hours after i.v. treatment) and in data set [5] (mice) was “dose-dependent loss of weight” throughout. Besides, in data set [4], the “TBH lower than that for DLinDMA” value was 7 °C. For the same compound, the HII transition temperature in data set [4] worked out at 20 °C. In addition, the “increase in ALT-AST” value in data set [5] (mice, approximately 1100 mg/kg lipid) is recorded as “greater than 10 fold”. The clinical signs result in data set [5] (mice, except at greater than 1300 mg/kg (hunched, slower movement, scruffy coat)) is recorded as “no obvious clinical signs”. For the same compound, the “FVII ED50” value in the data set on Factor VII (FVII) [6] is listed as around 0.1 mg/kg. For the same compound, the “fold more potent / greater activity than DLin-K-DMA” value in the data set on Factor VII (FVII) [6] (mice) was 4 fold and 2-3 fold. The “fold difference in in vivo activity between DLin-K-C2-DMA and DLin-K-C4-DMA” value in the data set on Factor VII (FVII) [6] (mouse, in vivo) was above 30 fold. Also, in the data set with Factor VII (FVII) [6] (reducing serum FVII protein, mouse, head-to-head), the “fold more potent than the DLinDMA benchmark” value amounted to 10 fold. Besides, the “siRNA dose as low as which in vivo activity was exhibited” value in the data set on Factor VII (FVII) [6] (rodents) is listed as 0.01 mg/kg. The “encapsulated siRNA sufficient to knockdown serum FVII protein by 50%” value in the data set on Factor VII (FVII) [6] (single i.v. bolus to a mouse, within 24 h, 40 mole % cationic lipid) is on record as around 100 picomoles.
As for “1,2-Dilinoleoyl-3-dimethylaminopropane [DLinDAP]”, the “Apparent pKa” value in data set [1] (in situ in preformed vesicles, TNS fluorescence titration, Table 11) came to 5.7. Further, the “Liver Cy-3 siRNA” value is 20.5 % injected dose in data set [7] (0.5 h post injection) and 16.5 % injected dose in data set [7] (3.0 h post injection). For the same compound, the “Plasma Cy-3 siRNA” value in data set [7] (0.5 h post injection) turned out to be 46.6 % injected dose; in data set [7] (3.0 h post injection), 3.3 % injected dose. Moreover, the HII transition temperature in data set [4] was determined as 26 °C. Moreover, the ED50 in the data set with Factor VII (FVII) [6] (Table 4, siRNA dose reducing serum FVII protein by 50% at 24 h, PFV LN-siRNA 40/10/40/10) was in the range of 40 to 50 mg/kg; in the data set on Factor VII (FVII) [6] (Table 8, FVII ED50 of the LN-siRNA system) it was 12 to 25 mg/kg; in the data set with Factor VII (FVII) [6] (setting [8]), 12 to 25 mg/kg. The “FVII ED50” value in the data set with Factor VII (FVII) [6] was above 25 mg/kg.
